Read-outs that look alike come from different tables or passages of the source.
Legend:
[1] = system: A549; assay: MTT cytotoxicity assay; assay type: cell-based, human; conditions: 48 h drug exposure
Method: (§1) The results reveal that the steric hindrance plays a significant role in the cytotoxicity of complex 3.
(§2) The effects of complex 3 on the viability of NSCLC cancer cells including A549 and NCI-H1299 were detected respectively via MTT assays at time points of 12, 24, 48 and 72 h (Figure 2A). The results shown that complex 3 could inhibit the viability of the NSCLC cells.
(§3) Human cancer cell lines HepG2, SGC-7901, HCT-116, A549, NCI-H1299 and MCF-7 as well as normal liver cell line L02 were purchased from the Cell Bank of Shanghai Institute of Cell Biology. Among them, MCF-7, HepG2 cells were cultured at 37 °C in 5% CO2 with DMEM supplemented with 10% fetal bovine serum (FBS) (Hyclone, Lifescience, USA) and 1% penicillin/streptomycin (Beyotime, Nantong, China), while HCT-116, SGC-7901, A549, NCI-H1299 and L02 cells were cultured at 37 °C in 5% CO2 with RPMI-1640 supplemented with 10% FBS and 1% penicillin/streptomycin. Cells were passed every 2 days and restarted from frozen stocks upon reaching pass number 20.
(§4) In vitro cytotoxicity of the platinum compounds against human hepatocellular carcinoma (HepG-2), gastric carcinoma (SGC-7901), non-small-cell lung cancer (A549), and colorectal cancer (HCT-116) cell lines were measured by the MTT assays. Briefly, the cells were seeded in 96-well cultured plates at a density of 5000 cells/well. After overnight incubation (16 h), the cells were treated with the platinum complexes. After 48 h of incubation, 10 μL of a freshly diluted 3-(4,5-dimethyl-2-thiazolyl)-2,5-diphenyl-2H-tetrazolium bromide (MTT) solution (5 mg/mL) were added to each well and the plates were incubated at 37 °C in a humidified 5% CO2 atmosphere for 4 h. At the end of the incubation period the medium was removed and the formazan product was dissolved in 150 μL of DMSO. The cell viability was evaluated by measurement of the absorbance at 490 nm, using an Absorbance Reader (BioRad). IC50 values (compound concentration that produces 50% of cell growth inhibition) were calculated from curves constructed by plotting cell survival inhibitory rate (%) versus drug concentration logarithm. All experiments were repeated in three times. The reading values were converted to the percentage of control (% cell survival). Cytotoxic effects were expressed as IC50 values.

[2] = system: NCI-H1299; assay: MTT cytotoxicity assay; assay type: cell-based, human
Method: as §1, §2, §3, §4

[3] = system: L02 normal liver cell line; assay: MTT cytotoxicity assay; assay type: cell-based; conditions: 48 h drug exposure
Method: as §1, §3, §4

[4] = system: A549 cells; assay: Subcellular distribution of Pt (mitochondria, lysosomes, nucleus, residual); conditions: A549, 10 μM, 4 h, ICP-MS
Source text: (§5) One of the main factors to determine the mechanism of cytotoxic activity of a metal-based drug is its ability to cross the cell membrane and to accumulate in cancer cells. Therefore, with the aim of correlating cellular accumulation, we investigated the cellular uptake of the platinum complexes in A549, NCI-H1299 cancer cells and L02 normal cell. […] Moreover, the amount of Pt in the different subcellular compartments of cancer cells was quantified to fetch a more detailed picture of Pt-based complexes intracellular localization (Figure 1C).
(§6) The cells were seeded in 6-well plates overnight and then incubated with 10 μM drugs at 37°C in standard culture conditions. After 4 h, the cells were washed with PBS buffer (pH 7.4) for three times, and harvested by trypsinization. […] The organelles were then isolated via differential centrifugation. All cellular compartments (mitochondria, lysosomes and nucleus) were isolated from A549 and NCI-H1299 cancer cells for direct comparative purposes. The supernatant phases discarded during the isolation of nuclei, lysosomes and mitochondria procedures were collected and formed the “residual” fraction. An aliquot of crude lysate after homogenization, nuclear, mitochondrial (pellet lysed via freeze and thaw cycles followed by 20 min incubation in ultrasonic bath), lysosomal and residual fraction was each used for protein quantification using the Bradford method. The harvested cells were concentrated and digested by nitric acid for the ICP measurement. The cell numbers were counted before the digested. For the measurement of Pt concentration in cellular DNA in A549, NCI-H1299 cancer cells, DNA was isolated by applying Genomic DNA Mini Preparation Kit (Beyotime, China), and Pt content in DNA was analyzed by ICP.

[5] = system: NCI-H1299 cells; assay: as above; conditions: NCI-H1299, 10 μM, 4 h, ICP-MS
Source text: as §5, §6

[6] = system: A549 cells; assay: Annexin V-FITC/PI apoptosis assay (flow cytometry); assay type: cell-based, human; conditions: A549, 50 μM for 24 h (figure legend and method: 10 μM)
Method: (§7) Apoptosis is a crucial programmed death form of aging or damaged cells. […] To further explore the impact of complex 3 on long-term clonogenic survival, colony formation assay was performed.
(§8) Annexin V-FITC apoptosis detection kit (Keygen, Jiangsu, China) assay was performed according to the manufacturer's protocol. […] Then the cells were collected, resuspended in binding buffer (pH 7.5, 10 mM HEPES, 2.5 mM CaCl2 and 140 mM NaCl), incubated with Annexin V-FITC and then PI for 10 min in the dark at room temperature, the processed cells were analyzed by flow cytometry (FACSCalibur, Becton Dickinson) and a computer station running Cell-Quest software. (BD Biosciences, Franklin Lakes, NJ).

[7] = system: NCI-H1299 cells; assay: Annexin V-FITC/PI apoptosis assay (flow cytometry); assay type: cell-based, human; conditions: NCI-H1299, 50 μM for 24 h (figure legend and method: 10 μM)
Method: as §7, §8

[8] = system: pET28a plasmid DNA; assay: Agarose gel electrophoresis of plasmid DNA; conditions: 0, 20, 80, 320, 640 μM
Method: The tested complexes were incubated with DNA at different concentrations.
Appropriate dilutions of tested complexes were made, and the required volumes of solutions were added to achieve a set of concentrations in the range of 0–100 mm; pET22b DNA (5 mL, 0.20 mg) was added to each tube, and the mixtures of platinum complexes and pET22b plasmid DNA were then incubated at 37°C for 6 or 24 h. Afterward, the agarose gel (made up to 1% w/v) containing ethidium bromide was prepared with TA buffer (50 mm Tris-acetate, pH 7.5). The mixtures with loading buffer (1 mL) underwent electrophores is in agarose gel in TA buffer at 100 V for 60 min. Bands were imaged using a Molecular Imager (Bio-Rad, USA) under UV light.

[9] = 48 h drug exposure, read-out: IC50 NCI-H1299

SMILES | IC50 [1] [µM] | IC50 ([2]; 24 h, 2 to 128 μM, read-out: IC50 NCI-H1299 exposed for 24 h) [µM] | IC50 [2, 9] [µM] | IC50 [3] [µM] | share of intracellular Pt, nucleus [4] [%] | share of intracellular Pt, nucleus [5] [%] | early and median apoptotic cells [6] [%] | early and median apoptotic cells [7] [%] | late apoptotic cells [7] [%] | gel electrophoretic mobility of plasmid DNA [8]
CC(C)C[NH+]1[C@@H]2CCCC[C@H]2[NH+](CC(C)C)[Pt-2]12[O]C(=O)CC(=O)[O]2 (stereo partly shown) [Complex 3] | 14.2 ± 1.22 | 7.42 | 20.9 ± 1.36 | 82.6 ± 3.95 | 79 | 72 | 0.94 | 9.77 | 27.51 | a strong unwinding of the supercoiled DNA
O=C1[O][Pt]2([NH][C@@H]3CCCC[C@H]3[NH]2)[O]C1=O [Oxaliplatin, oxaliplatin, reference compound] | 112 ± 11.3 | – | 62.4 ± 2.35 | 42.9 ± 3.54 | 63 | 57 | 29.50 | 10.27 | 15.98 | a decrease in the rate of migration for closed circular DNA (Form I)
